biological target: T1, rat striatal 5HT6 receptors (Rattus norvegicus, UniProt P31388); assay: [125I]SB258585 binding to rat striatal 5HT6 receptors; settings: competition with [125I]SB258585, rat striatal membranes
T1 construct: Striatal tissue from adult rats (Sprague-Dawley, 320-370 g, B & K Sweden) were dissected out, weighed and homogenized; from tissue; host or cells: rat striatum (Sprague-Dawley) membranes
Experimental: Method for [125I]SB258585 binding to rat striatal 5HT6 receptors
[125I]SB258585 (1) with specific activity 2000 Ci/mmol was purchased from Amersham Biosciences Europe GmbH, Freiburg, Germany. Other chemicals were purchased from commercial sources and were of analytical grade.
Striatal tissue from adult rats (Sprague-Dawley, 320-370 g, B & K Sweden) were dissected out, weighed and homogenized in buffer containing 50 mM Tris-HCl, 4 mM MgCl2, 1 mM EDTA, 10 μM pargyline and protease inhibitor (Complete, Roche Diagnostics) pH 7.4 using an Ultra-Turrax T8 (IKA Labortechnik, Germany). The tissue homogenate was centrifuged at 48 000×g for 10 min and the pellet was resuspended and recentrifuged as above. The final membranes were diluted in buffer to a concentration of 60 mg original wet weight (w.w.) per ml and stored in aliquots at −70° C.
Saturation binding studies were carried out in duplicate with 1-3 mg w.w. per tube in 0.5 ml buffer (50 mM Tris, 4 mM MgCl2, 100 mM NaCl, 1 mM EDTA, 5 mM ascorbate and 10 μM pargyline at pH 7.4), 0.2 nM [125I]SB258585 and unlabelled SB258585 to give a final concentration range of 0.23-20 nM (12 conc.). Non-specific binding was determined in the presence of 10 μM methiothepin. In the competition experiments 0.8-2 mg w.w. per tube and a radioligand concentration of 0.5-1 nM were used with 7 concentrations of the competing drug pre-dissolved in DMSO and diluted in buffer. The assays were incubated for 1-3 hours at room temperature, and terminated by rapid filtration through Whatman GF/B filters pretreated with 0.3% polyethyleneimine using a Brandel cell harvester. The radioactivity was determined in a Packard Tri-Carb 2900TR liquid scintillation counter. Data were analyzed by non-linear regression analyses using PRISM 4.00 (GraphPad Software Inc., San Diego, Calif.).
Hirst, W. D., Minton, J. A. L., Bromidge, S. M., Moss, S. F., Latter, A., Riley, G., Routledge, C., Middlemiss, D. N. & Price, G. W. (2000). Characterization of [125I]-SB-258585 binding to human recombinant and native 5HT6 receptors in rat, pig and human brain tissue. Br. J. Pharmacol., 130, 1597-1605.

T1 sequence (P31388 whole entry): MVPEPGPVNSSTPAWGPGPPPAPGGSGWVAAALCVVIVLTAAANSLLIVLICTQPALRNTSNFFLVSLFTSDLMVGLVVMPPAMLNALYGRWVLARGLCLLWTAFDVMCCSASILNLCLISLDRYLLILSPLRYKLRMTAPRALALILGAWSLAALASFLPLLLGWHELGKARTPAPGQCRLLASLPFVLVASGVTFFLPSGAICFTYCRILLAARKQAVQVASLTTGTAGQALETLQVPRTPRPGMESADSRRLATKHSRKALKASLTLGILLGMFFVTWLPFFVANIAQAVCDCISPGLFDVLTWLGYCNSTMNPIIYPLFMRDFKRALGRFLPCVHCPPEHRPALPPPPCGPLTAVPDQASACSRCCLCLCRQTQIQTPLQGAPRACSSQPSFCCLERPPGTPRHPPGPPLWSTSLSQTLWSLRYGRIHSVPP

Compound	Ki
COc1ccc(NS(=O)(=O)c2cc(Cl)cc(Cl)c2)c2c1C[C@@H](N1CCCC1)CC2 [Example 313, 3,5-Dichloro-N-[(6S)-4-methoxy-6-pyrrolidin-1-yl-5,6,7,8-tetrahydronaphthalen-1-yl]benzenesulfonamide]	0.29 ± 0.19 µM
COc1ccc(NS(=O)(=O)c2ccccc2-c2ccccc2)c2c1C[C@@H](N(C)C)CC2 [Example 176, N-[(6S)-6-(dimethylamino)-4-methoxy-5,6,7,8-tetrahydronaphthalen-1-yl]-1,1′-biphenyl-2-sulfonamide]	0.013 ± 0.0059 µM
COc1ccc(NS(=O)(=O)c2ccc3ccccc3c2)c2c1C[C@@H](N(C)C)CO2 [Example 24, N-[(3R)-3-(dimethylamino)-5-methoxy-3,4-dihydro-2H-chromen-8-yl]naphthalene-2-sulfonamide]	0.042 ± 0.027 µM
COc1ccc(NS(=O)(=O)c2ccccc2-c2ccccc2)c2c1C[C@@H](N(C)C)CO2 [Example 122, N-[(3R)-3-(dimethylamino)-5-methoxy-3,4-dihydro-2H-chromen-8-yl]-1,1′-biphenyl-2-sulfonamide]	0.002 ± 0.0006 µM
CN(C)[C@H]1CCc2c(cccc2NS(=O)(=O)c2cccc(Br)c2)C1 [Example 170, (2S)-5-{[(3-Bromophenyl)sulfonyl]amino}-N,N-dimethyl-1,2,3,4-tetrahydronaphthalen-2-ammonium Acetate]	0.074 µM
COc1ccc(NS(=O)(=O)c2sc3ccc(F)cc3c2C)c2c1C[C@@H](N(C)C)CC2 [Example 181, N-[(6S)-6-(dimethylamino)-4-methoxy-5,6,7,8-tetrahydronaphthalen-1-yl]-5-fluoro-3-methyl-1-benzothiophene-2-sulfonamide]	0.019 ± 0.0008 µM
COc1ccc(NS(=O)(=O)c2cccc(Br)c2)c2c1C[C@@H](N(C)C)CO2 [Example 3, 3-Bromo-N-[(3R)-3-(dimethylamino)-5-methoxy-3,4-dihydro-2H-chromen-8-yl]benzenesulfonamide]	0.0075 ± 0.0036 µM
COc1ccc(NS(=O)(=O)c2ccc(-c3ccnc(SC)n3)s2)c2c1C[C@@H](N(C)C)CO2 [Example 135, N-[(3R)-3-(dimethylamino)-5-methoxy-3,4-dihydro-2H-chromen-8-yl]-5-[2-(methylthio)pyrimidin-4-yl]thiophene-2-sulfonamide]	0.049 ± 0.016 µM
